# According to ChEMBL document CHEMBL4507263, “Data for DCP probe BAY-474” (2021):
# Legend:
# [1] = tested on: Tyrosine-protein kinase ABL1 (Homo sapiens), P00519 [F317L]; conditions: Compound concentration 1000.0 nM
# [2] = target: Calcium/calmodulin-dependent protein kinase type 1D (Homo sapiens) (UniProt Q8IU85); conditions: Compound concentration 1000.0 nM
# [3] = target: Serine/threonine-protein kinase DCLK3 (Homo sapiens) (UniProt Q9C098); conditions: Compound concentration 1000.0 nM
# [4] = target: Ephrin type-A receptor 4 (Homo sapiens) (UniProt P54764); conditions: Compound concentration 1000.0 nM
# [5] = tested on: Receptor-type tyrosine-protein kinase FLT3 (Homo sapiens), P36888 [UNDEFINED MUTATION]; conditions: Compound concentration 1000.0 nM
# [6] = target: Homeodomain-interacting protein kinase 2 (Homo sapiens) (UniProt Q9H2X6); conditions: Compound concentration 1000.0 nM
# [7] = target: Tyrosine-protein kinase ITK/TSK (Homo sapiens) (UniProt Q08881); conditions: Compound concentration 1000.0 nM
# [8] = target: Tyrosine-protein kinase JAK3 (Homo sapiens) (UniProt P52333); conditions: Compound concentration 1000.0 nM
# [9] = tested on: Mast/stem cell growth factor receptor Kit (Homo sapiens), P10721 [D816V]; conditions: Compound concentration 1000.0 nM
# [10] = target: Misshapen-like kinase 1 (Homo sapiens) (UniProt Q8N4C8); conditions: Compound concentration 1000.0 nM
# [11] = target: Myosin light chain kinase, smooth muscle (Homo sapiens) (UniProt Q15746); conditions: Compound concentration 1000.0 nM
# [12] = target: Serine/threonine-protein kinase NLK (Homo sapiens) (UniProt Q9UBE8); conditions: Compound concentration 1000.0 nM
# [13] = target: Mitogen-activated protein kinase 14 (Homo sapiens) (UniProt Q16539); conditions: Compound concentration 1000.0 nM
# [14] = target: Serine/threonine-protein kinase PAK 3 (Homo sapiens) (UniProt O75914); conditions: Compound concentration 1000.0 nM
# [15] = target: Platelet-derived growth factor receptor beta (Homo sapiens) (UniProt P09619); conditions: Compound concentration 1000.0 nM
# [16] = target: Cyclin-dependent kinase 15 (Homo sapiens) (UniProt Q96Q40); conditions: Compound concentration 1000.0 nM
# [17] = tested on: Phosphatidylinositol 4,5-bisphosphate 3-kinase catalytic subunit alpha isoform (Homo sapiens), P42336 [E542K]; conditions: Compound concentration 1000.0 nM
# [18] = tested on: Phosphatidylinositol 4,5-bisphosphate 3-kinase catalytic subunit alpha isoform (Homo sapiens), P42336 [M1043I]; conditions: Compound concentration 1000.0 nM
# [19] = target: Serine/threonine-protein kinase PknB (Mycobacterium tuberculosis) (UniProt P9WI81); conditions: Compound concentration 1000.0 nM
# [20] = target: Serine/threonine-protein kinase PLK1 (Homo sapiens) (UniProt P53350); conditions: Compound concentration 1000.0 nM
# [21] = target: T1, cGMP-dependent protein kinase 1 (Homo sapiens) (UniProt Q13976); conditions: Compound concentration 1000.0 nM
# T1 sequence (whole entry): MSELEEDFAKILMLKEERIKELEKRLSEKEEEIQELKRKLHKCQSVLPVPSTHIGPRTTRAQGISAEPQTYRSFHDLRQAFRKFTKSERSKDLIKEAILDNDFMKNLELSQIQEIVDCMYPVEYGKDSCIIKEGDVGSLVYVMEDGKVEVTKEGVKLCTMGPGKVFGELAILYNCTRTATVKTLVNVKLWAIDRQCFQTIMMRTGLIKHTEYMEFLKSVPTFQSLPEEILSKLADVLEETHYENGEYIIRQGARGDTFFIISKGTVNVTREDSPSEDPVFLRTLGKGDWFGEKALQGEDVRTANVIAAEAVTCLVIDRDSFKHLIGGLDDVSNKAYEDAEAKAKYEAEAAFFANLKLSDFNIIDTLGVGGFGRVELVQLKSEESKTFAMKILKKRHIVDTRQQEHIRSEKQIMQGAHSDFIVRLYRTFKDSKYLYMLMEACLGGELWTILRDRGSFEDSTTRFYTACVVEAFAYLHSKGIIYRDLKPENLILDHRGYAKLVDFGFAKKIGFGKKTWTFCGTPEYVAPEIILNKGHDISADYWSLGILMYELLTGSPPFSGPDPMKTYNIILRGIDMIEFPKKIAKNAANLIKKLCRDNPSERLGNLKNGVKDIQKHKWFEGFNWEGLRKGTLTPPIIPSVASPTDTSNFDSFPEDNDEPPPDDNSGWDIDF
# [22] = target: cAMP-dependent protein kinase catalytic subunit PRKX (Homo sapiens) (UniProt P51817); conditions: Compound concentration 1000.0 nM
# [23] = target: Serine/threonine-protein kinase SIK2 (Homo sapiens) (UniProt Q9H0K1); conditions: Compound concentration 1000.0 nM
# [24] = target: Angiopoietin-1 receptor (Homo sapiens) (UniProt Q02763); conditions: Compound concentration 1000.0 nM
# [25] = target: Mitogen-activated protein kinase kinase kinase 20 (Homo sapiens) (UniProt Q9NYL2); conditions: Compound concentration 1000.0 nM
# [26] = target: Tyrosine-protein kinase BTK (Homo sapiens) (UniProt Q06187); assay: BTK (h) Millipore kinase activity assay; conditions: Compound concentration 1.0 uM
# [27] = target: Cyclin-dependent kinase 1/cyclin B (Homo sapiens) (UniProt P06493+P14635+Q8WWL7+O95067); assay: CDK1/cyclinB( h) Millipore kinase activity assay; format: protein-complex assay; conditions: Compound concentration 1.0 uM
# [28] = target: Ephrin type-A receptor 5 (Homo sapiens) (UniProt P54756); assay: EphA5 (h) Millipore kinase activity assay; conditions: Compound concentration 1.0 uM
# [29] = target: Ephrin type-A receptor 7 (Homo sapiens) (UniProt Q15375); assay: EphA7 (h) Millipore kinase activity assay; conditions: Compound concentration 1.0 uM
# [30] = target: Protein kinase C alpha type (Homo sapiens) (UniProt P17252); assay: PKCalpha (h) Millipore kinase activity assay; conditions: Compound concentration 1.0 uM
# [31] = target: Protein kinase C beta type (Homo sapiens) (UniProt P05771); assay: PKCbetaI (h) Millipore kinase activity assay; conditions: Compound concentration 1.0 uM
# [32] = target: MAP kinase-activated protein kinase 5 (Homo sapiens) (UniProt Q8IW41); assay: PRAK (h) Millipore kinase activity assay; conditions: Compound concentration 1.0 uM
# [33] = target: Ribosomal protein S6 kinase alpha-1 (Homo sapiens) (UniProt Q15418); assay: Rsk1 (h) Millipore kinase activity assay; conditions: Compound concentration 1.0 uM
# [34] = target: Serine/threonine-protein kinase Sgk1 (Homo sapiens) (UniProt O00141); assay: SGK (h) Millipore kinase activity assay; conditions: Compound concentration 1.0 uM
# [35] = target: Sodium-dependent serotonin transporter (Homo sapiens) (UniProt P31645); conditions: Compound concentration 10.0 uM
# [36] = target: Adenosine receptor A1 (Homo sapiens) (UniProt P30542); conditions: Compound concentration 10.0 uM
# Serine/threonine-protein kinase PAK 3 (Homo sapiens), sequence (O75914 whole entry, looked up): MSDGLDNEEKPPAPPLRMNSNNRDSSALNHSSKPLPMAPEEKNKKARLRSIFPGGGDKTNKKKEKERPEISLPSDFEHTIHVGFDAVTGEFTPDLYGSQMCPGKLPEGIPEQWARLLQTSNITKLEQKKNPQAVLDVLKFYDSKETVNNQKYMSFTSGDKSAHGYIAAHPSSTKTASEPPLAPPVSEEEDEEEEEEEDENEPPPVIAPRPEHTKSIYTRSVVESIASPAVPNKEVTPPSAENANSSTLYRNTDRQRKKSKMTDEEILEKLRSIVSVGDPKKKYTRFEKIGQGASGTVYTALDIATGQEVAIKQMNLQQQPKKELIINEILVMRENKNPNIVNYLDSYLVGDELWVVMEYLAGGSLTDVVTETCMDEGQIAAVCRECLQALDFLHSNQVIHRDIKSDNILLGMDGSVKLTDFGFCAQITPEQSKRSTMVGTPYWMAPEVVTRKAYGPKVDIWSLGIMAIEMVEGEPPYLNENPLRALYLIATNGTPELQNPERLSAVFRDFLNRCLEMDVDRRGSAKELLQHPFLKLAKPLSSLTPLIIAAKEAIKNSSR
# Receptor-type tyrosine-protein kinase FLT3 (Homo sapiens), P36888 [UNDEFINED MUTATION], sequence (P36888 whole entry, looked up, change not shown): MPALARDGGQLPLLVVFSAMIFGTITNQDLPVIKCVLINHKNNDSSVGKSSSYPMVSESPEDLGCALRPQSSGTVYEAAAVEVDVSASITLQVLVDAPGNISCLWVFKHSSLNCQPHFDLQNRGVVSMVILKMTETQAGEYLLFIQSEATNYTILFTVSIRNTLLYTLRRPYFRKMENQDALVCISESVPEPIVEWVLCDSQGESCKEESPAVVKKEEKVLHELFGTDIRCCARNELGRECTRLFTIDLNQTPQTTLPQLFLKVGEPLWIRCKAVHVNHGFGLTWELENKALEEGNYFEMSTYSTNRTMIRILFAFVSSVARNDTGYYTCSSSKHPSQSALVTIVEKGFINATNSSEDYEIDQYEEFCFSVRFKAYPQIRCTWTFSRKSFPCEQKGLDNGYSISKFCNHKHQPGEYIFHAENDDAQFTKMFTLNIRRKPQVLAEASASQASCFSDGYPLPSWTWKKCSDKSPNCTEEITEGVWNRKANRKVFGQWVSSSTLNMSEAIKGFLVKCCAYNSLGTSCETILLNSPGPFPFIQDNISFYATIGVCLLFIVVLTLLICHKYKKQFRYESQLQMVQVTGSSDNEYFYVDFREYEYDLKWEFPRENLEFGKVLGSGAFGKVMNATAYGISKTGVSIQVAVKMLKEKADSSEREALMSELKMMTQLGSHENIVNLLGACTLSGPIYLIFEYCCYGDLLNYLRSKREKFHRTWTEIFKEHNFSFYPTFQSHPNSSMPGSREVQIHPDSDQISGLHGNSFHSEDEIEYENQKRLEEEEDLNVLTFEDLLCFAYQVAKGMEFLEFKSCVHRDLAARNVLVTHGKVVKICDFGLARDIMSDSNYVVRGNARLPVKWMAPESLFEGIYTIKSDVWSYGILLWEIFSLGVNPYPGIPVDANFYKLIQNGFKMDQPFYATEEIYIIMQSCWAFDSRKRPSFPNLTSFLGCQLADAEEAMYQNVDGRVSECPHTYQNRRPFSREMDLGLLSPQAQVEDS
# Ephrin type-A receptor 7 (Homo sapiens), sequence (Q15375 28-998 limits assumed): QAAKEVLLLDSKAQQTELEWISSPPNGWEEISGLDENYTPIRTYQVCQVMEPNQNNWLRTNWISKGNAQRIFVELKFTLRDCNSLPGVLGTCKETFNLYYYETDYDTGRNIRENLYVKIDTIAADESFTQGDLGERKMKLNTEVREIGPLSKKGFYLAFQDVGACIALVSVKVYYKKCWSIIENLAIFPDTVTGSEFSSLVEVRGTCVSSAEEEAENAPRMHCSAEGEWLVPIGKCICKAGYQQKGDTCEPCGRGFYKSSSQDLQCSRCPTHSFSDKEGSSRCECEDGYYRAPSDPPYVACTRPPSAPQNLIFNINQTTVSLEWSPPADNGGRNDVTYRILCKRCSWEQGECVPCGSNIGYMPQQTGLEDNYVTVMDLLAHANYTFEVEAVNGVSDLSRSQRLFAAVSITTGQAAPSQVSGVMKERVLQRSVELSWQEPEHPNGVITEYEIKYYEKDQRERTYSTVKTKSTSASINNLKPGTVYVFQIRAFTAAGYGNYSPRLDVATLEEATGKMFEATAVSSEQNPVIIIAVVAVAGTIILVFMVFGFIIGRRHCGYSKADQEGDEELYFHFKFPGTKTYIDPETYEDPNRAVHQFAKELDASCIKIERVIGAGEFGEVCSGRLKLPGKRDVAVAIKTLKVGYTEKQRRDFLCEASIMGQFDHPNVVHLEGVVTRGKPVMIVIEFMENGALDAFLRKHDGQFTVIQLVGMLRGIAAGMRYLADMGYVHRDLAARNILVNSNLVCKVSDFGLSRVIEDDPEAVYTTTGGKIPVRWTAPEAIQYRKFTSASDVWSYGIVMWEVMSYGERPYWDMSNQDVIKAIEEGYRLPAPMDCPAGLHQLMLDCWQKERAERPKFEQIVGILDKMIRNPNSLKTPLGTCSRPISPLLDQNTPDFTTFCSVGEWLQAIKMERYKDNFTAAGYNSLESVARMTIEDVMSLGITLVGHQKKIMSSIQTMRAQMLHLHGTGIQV
# Ephrin type-A receptor 4 (Homo sapiens), sequence (P54764 whole entry): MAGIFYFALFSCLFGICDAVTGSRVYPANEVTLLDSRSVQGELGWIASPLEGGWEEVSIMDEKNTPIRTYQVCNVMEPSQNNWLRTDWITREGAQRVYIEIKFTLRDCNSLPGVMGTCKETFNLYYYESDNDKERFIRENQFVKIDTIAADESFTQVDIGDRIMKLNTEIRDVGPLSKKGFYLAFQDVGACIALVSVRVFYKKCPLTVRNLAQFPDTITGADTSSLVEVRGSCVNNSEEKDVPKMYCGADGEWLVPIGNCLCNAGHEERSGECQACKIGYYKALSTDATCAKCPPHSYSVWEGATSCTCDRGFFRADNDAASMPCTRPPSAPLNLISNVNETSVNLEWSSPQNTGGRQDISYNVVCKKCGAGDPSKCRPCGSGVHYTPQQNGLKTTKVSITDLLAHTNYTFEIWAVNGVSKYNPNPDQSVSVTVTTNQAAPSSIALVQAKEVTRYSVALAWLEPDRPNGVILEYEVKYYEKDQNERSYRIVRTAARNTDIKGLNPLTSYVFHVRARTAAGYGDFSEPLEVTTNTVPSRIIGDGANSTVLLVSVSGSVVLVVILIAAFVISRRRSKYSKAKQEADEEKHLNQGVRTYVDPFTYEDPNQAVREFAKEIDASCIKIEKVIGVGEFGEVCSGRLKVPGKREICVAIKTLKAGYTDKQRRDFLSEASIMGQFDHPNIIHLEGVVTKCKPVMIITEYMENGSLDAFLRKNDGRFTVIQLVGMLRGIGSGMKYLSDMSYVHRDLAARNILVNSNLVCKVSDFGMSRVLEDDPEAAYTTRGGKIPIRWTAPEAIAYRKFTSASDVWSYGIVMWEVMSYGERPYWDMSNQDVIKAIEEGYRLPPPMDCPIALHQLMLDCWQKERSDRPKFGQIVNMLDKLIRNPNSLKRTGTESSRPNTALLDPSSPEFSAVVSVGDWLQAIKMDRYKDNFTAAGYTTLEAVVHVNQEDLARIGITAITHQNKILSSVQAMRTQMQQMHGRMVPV
# Ephrin type-A receptor 5 (Homo sapiens), sequence (P54756 whole entry): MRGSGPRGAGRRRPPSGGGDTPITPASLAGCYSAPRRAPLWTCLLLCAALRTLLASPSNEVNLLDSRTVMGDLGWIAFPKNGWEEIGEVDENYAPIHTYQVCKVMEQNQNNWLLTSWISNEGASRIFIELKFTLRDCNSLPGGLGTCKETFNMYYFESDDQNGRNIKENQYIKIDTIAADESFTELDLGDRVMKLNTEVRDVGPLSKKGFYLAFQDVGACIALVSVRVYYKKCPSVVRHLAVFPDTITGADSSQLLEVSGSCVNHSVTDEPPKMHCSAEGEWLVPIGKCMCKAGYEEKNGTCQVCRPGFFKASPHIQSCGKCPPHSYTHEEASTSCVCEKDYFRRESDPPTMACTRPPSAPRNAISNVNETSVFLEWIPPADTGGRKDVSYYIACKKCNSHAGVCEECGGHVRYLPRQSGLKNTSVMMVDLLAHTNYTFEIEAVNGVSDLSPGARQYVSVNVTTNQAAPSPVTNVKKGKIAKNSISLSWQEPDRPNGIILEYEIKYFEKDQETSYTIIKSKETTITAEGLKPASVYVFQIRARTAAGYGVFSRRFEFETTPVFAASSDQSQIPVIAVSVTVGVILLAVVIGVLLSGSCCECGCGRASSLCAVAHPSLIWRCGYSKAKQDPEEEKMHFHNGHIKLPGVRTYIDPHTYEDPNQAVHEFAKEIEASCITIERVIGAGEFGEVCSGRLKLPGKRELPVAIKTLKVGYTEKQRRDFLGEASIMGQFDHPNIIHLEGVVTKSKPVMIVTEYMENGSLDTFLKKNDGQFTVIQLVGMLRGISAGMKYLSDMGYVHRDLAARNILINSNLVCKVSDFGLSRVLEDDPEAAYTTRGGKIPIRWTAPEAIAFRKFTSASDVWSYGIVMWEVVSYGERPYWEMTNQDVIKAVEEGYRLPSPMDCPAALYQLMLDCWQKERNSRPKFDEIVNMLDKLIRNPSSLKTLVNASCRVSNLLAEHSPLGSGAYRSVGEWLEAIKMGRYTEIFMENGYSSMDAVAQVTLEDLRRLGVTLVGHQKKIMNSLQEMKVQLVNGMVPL
# MAP kinase-activated protein kinase 5 (Homo sapiens), sequence (Q8IW41 whole entry): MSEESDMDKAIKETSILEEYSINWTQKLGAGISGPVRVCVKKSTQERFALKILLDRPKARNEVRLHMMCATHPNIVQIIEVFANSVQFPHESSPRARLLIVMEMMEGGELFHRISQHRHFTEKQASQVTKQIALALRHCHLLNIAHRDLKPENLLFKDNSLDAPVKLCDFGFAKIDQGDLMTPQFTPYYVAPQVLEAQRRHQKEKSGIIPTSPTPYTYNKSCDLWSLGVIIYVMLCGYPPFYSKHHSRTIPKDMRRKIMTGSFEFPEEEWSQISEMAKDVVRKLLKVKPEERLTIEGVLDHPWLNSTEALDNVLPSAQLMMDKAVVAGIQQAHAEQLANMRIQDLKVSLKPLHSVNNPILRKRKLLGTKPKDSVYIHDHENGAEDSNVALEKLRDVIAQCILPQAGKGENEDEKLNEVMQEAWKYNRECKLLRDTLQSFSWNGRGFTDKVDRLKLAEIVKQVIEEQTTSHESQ
compound,measurement,setting,value
CC1=C(C#N)[C@@H](c2ccc3[nH]nc(C)c3c2)C(C#N)=C(c2ccc(Cl)cc2)N1 [BAY-827],residual activity,[1],100%
same,residual activity,[2],100%
same,residual activity,[3],71.3%
same,residual activity,[4],96.4%
same,residual activity,[5],100%
same,residual activity,[6],86.1%
same,residual activity,[7],97.2%
same,residual activity,[8],100%
same,residual activity,[9],100%
same,residual activity,[10],77%
same,residual activity,[11],100%
same,residual activity,[12],78.9%
same,residual activity,[13],100%
same,residual activity,[14],100%
same,residual activity,[15],100%
same,residual activity,[16],75.4%
same,residual activity,[17],78.6%
same,residual activity,[18],25.2%
same,residual activity,[19],100%
same,residual activity,[20],100%
same,residual activity,[21],86.9%
same,residual activity,[22],100%
same,residual activity,[23],100%
same,residual activity,[24],74.5%
same,residual activity,[25],93.6%
CC1=C(C#N)C(c2ccc3[nH]nc(C)c3c2)C(C#N)=C(C)N1 [BAY-474],inhibition,[26],-8%
same,inhibition,[27],16%
same,inhibition,[28],-1%
same,inhibition,[29],-2%
same,inhibition,[30],18%
same,inhibition,[31],-4%
same,inhibition,[32],6%
same,inhibition,[33],46%
same,inhibition,[34],-2%
same,inhibition,[35],-3.41%
same,inhibition,[36],-2%
